Measured values from PMC8537386, “The Specificity and Broad Multitarget Properties of Ligands for the Free Fatty Acid Receptors FFA3/GPR41 and FFA2/GPR43 and the Related Hydroxycarboxylic Acid Receptor HCA2/GPR109A” (Pharmaceuticals, 2021).
Where two headings read alike, the source gives them in different places.

What was measured:
[1] = target: T1, FFA3/GPR41 (Homo sapiens, UniProt O14843); experiment: forskolin-stimulated cAMP accumulation assay, Flp-In-293 cells stably expressing FFA3/GPR41; format: cell-based; conditions: for inhibition at 50 µM / Emax: Flp-In-293; for inhibition at 50 µM: 50 µM compound, NA = not active up to 50 µM; for Emax / EC50: mean ± SD; for Emax: read-out: FFA3/GPR41 Emax, maximal inhibition of forskolin-stimulated cAMP (converted); for EC50: inhibition of forskolin-stimulated cAMP, absence of propionate, read-out: FFA3/GPR41 EC50; for activity towards FFA3/GPR41 (in words): cAMP assay
T1 construct: host or cells: Flp-In-293
T1 sequence (O14843 1-346): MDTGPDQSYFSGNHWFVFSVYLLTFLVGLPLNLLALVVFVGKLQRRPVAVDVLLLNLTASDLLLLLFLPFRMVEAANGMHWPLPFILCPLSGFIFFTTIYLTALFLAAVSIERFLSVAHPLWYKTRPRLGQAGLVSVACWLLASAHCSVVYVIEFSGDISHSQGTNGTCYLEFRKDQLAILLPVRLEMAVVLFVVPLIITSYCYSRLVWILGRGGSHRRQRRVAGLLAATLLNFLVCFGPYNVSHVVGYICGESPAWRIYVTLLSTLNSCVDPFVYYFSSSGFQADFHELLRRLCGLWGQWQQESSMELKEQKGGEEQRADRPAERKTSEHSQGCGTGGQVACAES
Experimental: (§1) All of our synthesized compounds were evaluated in forskolin-stimulated cAMP accumulation assay using Flp-In-293 cells stably expressing human FFA2/GPR43, FFA3/GPR41 or HCA2/GPR109A receptors (Table 1, Table 2 and Table 3; Figure 2).
(§2) Flp-In-293 cells (Invitrogen) were used for the generation of stable FFA3/GPR41 and FFA2/GRP43 cell lines using Flp-In System (Invitrogen). Flp-In-293 cells were cultured in Dulbecco’s modified Eagle medium (DMEM) supplemented with 10% fetal bovine serum (FBS), penicillin (100 U/mL), streptomycin (100 µg/mL), and zeocin (100 µg/mL). The cells were co-transfected with pOG44 (Invitrogen) and pcDNA5/FRT-FFA3 or pcDNA5/FRT-FFA2 using TurboFect (Thermo Fisher Scientific), and stable cell lines were generated according to the manufacturer’s protocol (Invitrogen). After transfection, the cells were cultured under selection pressure due to the presence of hygromycin B (100 µg/mL) in DMEM supplemented with 10% FBS, penicillin, and streptomycin.
(§3) For cAMP assay, the cells were distributed into a 384-well white microplate at a density of 12,000 cells per well and stimulated with the indicated compounds in the presence of 3 μM forskolin for 30 min. […] The cells and the compounds were diluted in 1X phosphate-buffered saline (PBS) supplemented with 0.5 mM of 3-isobutyl-1-methylxanthine. The intracellular cAMP levels were measured using a Lance cAMP kit according to the manufacturer’s instructions. The plates were read on a PerkinElmer Victor 3V multilabel plate reader. The cAMP was quantitated in each sample by comparison to a calibration curve of known cAMP quantities provided in the kit.

[2] = target: T2, FFA2/GPR43 (Homo sapiens, UniProt O15552); experiment: forskolin-stimulated cAMP accumulation assay, Flp-In-293 cells stably expressing FFA2/GPR43; format: cell-based; conditions: for inhibition at 50 µM / Emax: Flp-In-293; for inhibition at 50 µM: 50 µM compound, NA = not active up to 50 µM; for activity towards FFA2/GPR43 (in words): cAMP assay; for Emax / EC50: mean ± SD; for Emax: read-out: FFA2/GPR43 Emax, maximal inhibition of forskolin-stimulated cAMP (converted); for EC50: inhibition of forskolin-stimulated cAMP
T2 construct: host or cells: Flp-In-293
T2 sequence (O15552 1-330): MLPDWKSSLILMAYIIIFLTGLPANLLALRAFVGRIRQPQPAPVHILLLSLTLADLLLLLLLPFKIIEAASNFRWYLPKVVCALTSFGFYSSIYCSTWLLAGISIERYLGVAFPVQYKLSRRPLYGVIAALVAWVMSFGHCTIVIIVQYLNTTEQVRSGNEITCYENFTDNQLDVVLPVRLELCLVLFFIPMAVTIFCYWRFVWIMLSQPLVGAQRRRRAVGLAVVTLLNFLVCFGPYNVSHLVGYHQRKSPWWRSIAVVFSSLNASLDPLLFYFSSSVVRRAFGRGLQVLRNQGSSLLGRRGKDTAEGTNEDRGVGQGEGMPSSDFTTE
Experimental: as §1, §2, §3

[3] = target: T3, HCA2/GPR109A (Homo sapiens, UniProt Q8TDS4); experiment: forskolin-stimulated cAMP accumulation assay, Flp-In-293 cells stably expressing HCA2/GPR109A; format: cell-based; conditions: for activity towards HCA2/GPR109A (in words): cAMP assay; for inhibition at 50 µM: 50 µM compound, NA = not active up to 50 µM
T3 construct: expressed in transfected cells; host or cells: Flp-In-293
T3 sequence (Q8TDS4 whole entry): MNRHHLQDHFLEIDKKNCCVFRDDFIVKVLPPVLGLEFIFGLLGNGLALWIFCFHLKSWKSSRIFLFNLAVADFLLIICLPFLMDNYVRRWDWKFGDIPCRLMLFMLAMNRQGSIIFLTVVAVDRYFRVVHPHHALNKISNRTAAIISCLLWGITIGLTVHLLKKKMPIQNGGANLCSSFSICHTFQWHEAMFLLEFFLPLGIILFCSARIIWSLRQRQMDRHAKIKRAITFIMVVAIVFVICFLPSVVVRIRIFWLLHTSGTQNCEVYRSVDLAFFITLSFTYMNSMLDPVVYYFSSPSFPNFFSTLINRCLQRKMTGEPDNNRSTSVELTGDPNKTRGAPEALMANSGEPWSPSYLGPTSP
Experimental: as §1
Flp-In-293 cells stably expressing human HCA2/GPR109A receptor (laboratory collection) were grown in DMEM medium supplemented with 10% FBS, penicillin, streptomycin, and hygromycin B (100 µg/mL). All cells were cultured at 37 °C in a humidified incubator containing 5% CO2.
as §3

[4] = cyclic voltammetry, electrooxidation potential; format: physicochemical; conditions: vs. Ag/Ag+; acetonitrile, glassy carbon electrode
Experimental: Cyclic voltammetry experiments were carried out using a PARSTAT 2273 electrochemical system. A stationary glassy carbon disk electrode (d = 0.8 mm) served as the working electrode, while the counter electrode was a Pt wire. The oxidation potentials were measured relative to an Ag/Ag^+ reference electrode. Acetonitrile was dried over P2O5 and distilled; the distillate was stored over CaH2 and redistilled immediately prior to use. Recrystallized tetrabutylammonium tetrafluoroborate (TBATFB) was used as a supporting electrolyte at 0.1 M concentration.

[5] = HCA2, mean ± SD, read-out: HCA2/GPR109A Emax, maximal inhibition of forskolin-stimulated cAMP (converted)
[6] = inhibition of forskolin-stimulated cAMP, mean ± SD, read-out: HCA2/GPR109A EC50

Row | SMILES | inhibition at 50 µM [1] | Emax [1] | EC50 [1] | inhibition at 50 µM [2] | Emax [3, 5] | EC50 [3, 6] | further results
1 | CC1=C(C(=O)Nc2ccc(Cl)cc2)C(c2cccs2)C2=C(CCCC2=O)N1 (centres unmarked) [1-5, N-(4-Chlorophenyl)-2-methyl-5-oxo-4-(thiophen-2-yl)-1,4,5,6,7,8-hexahydroquinoline-3-carboxamide] | 45 ± 9% | – | – | – | – | – | –
2 | CC1=C(C(=O)Nc2ccc(Cl)cc2Cl)C(c2cccs2)C2=C(CCCC2=O)N1 (centres unmarked) [1-6, N-(2,4-Dichlorophenyl)-2-methyl-5-oxo-4-(thiophen-2-yl)-1,4,5,6,7,8-hexahydroquinoline-3-carboxamide] | – | 82% | 1400 ± 170 nM | – | – | – | –
3 | CC1=C(C(=O)Nc2ccccn2)C(c2cccs2)C2=C(CCCC2=O)N1 (centres unmarked) [1-7, 2-Methyl-5-oxo-N-(pyridin-2-yl)-4-(thiophen-2-yl)-1,4,5,6,7,8-hexahydroquinoline-3-carboxamide] | – | – | – | 49 ± 8% | – | – | activity towards FFA3/GPR41 (in words) [1]: lost; activity towards FFA2/GPR43 (in words) [2]: showed activity
4 | CC1=C(C(=O)N2CCOCC2)C(c2cccs2)C2=C(CCCC2=O)N1 (centres unmarked) [1-8, 2-Methyl-3-(morpholine-4-carbonyl)-4-(thiophen-2-yl)-4,6,7,8-tetrahydro-1H-quinolin-5-one] | 28 ± 2% | – | – | – | – | – | activity towards HCA2/GPR109A (in words) [3]: lacked activity; activity towards FFA2/GPR43 (in words) [2]: lacked activity
5 | CCOC(=O)COC(=O)C1=C(C)NC2=C(C(=O)CCC2)C1c1cccs1 (centres unmarked) [1-9] | – | 91% | 1900 ± 400 nM | 40 ± 2% | – | – | El.ox. pot. (first, lower potential) [4]: 1.18 V
6 | CCOC(=O)C(OC(=O)C1=C(C)NC2=C(C(=O)CCC2)C1c1cccs1)c1ccccc1 (centres unmarked) [1-10, (2-Ethoxy-2-oxo-1-phenylethyl)2-methyl-5-oxo-4-(2-thienyl)-4,6,7,8-tetrahydro-1H-quinoline-3-carboxylate] | 49 ± 15% | – | – | 31 ± 4% | – | – | inhibition at 50 µM ([3]; HCA2): 60 ± 5%; El.ox. pot. (first, lower potential) [4]: 1.18 V
7 | CCCNCC1=C(C(=O)OCC)C(c2ccc(-c3ccccc3)cc2)C2=C(CC(C)(C)CC2=O)N1 (centres unmarked) [1-11] | 51 ± 6% | – | – | 55 ± 6% | – | – | inhibition at 50 µM ([3]; HCA2): 52 ± 5%
8 | CCN1CC2=C(C1=O)C(c1ccc(-c3ccccc3)cc1)C1=C(CC(C)(C)CC1=O)N2 (centres unmarked) [1-12] | 16 ± 8% | – | – | 21 ± 4% | – | – | inhibition at 50 µM ([3]; HCA2): 16 ± 4%; activity towards HCA2/GPR109A (in words) [3]: low activity; activity towards FFA3/GPR41 (in words) [1]: low activity; activity towards FFA2/GPR43 (in words) [2]: low activity
9 | CC(=O)OCCN1C2=C(C(=O)CC(C)(C)C2)C(c2ccccc2)C2=C1CC(C)(C)CC2=O [1-13] | 30 ± 9% | – | – | 32 ± 7% | – | – | inhibition at 50 µM ([3]; HCA2): 26 ± 8%
10 | CCOC(=O)C1=C(C(=O)O)NC2=C(C(=O)CC(C)(C)C2)C1c1ccc(-c2ccccc2)cc1 (centres unmarked) [1-14] | – | – | – | – | – | – | activity towards HCA2/GPR109A (in words) [3]: completely lacked activity; activity towards FFA3/GPR41 (in words) [1]: completely lacked activity; activity towards FFA2/GPR43 (in words) [2]: completely lacked activity
11 | CCc1cc(=O)oc2[nH]c(=S)[nH]c(=O)c12 [2-2] | – | – | 370 ± 80 nM | – | – | – | EC50 [3]: 490 ± 60 nM; Emax ([3]; HCA2, read-out: HCA2/GPR109A Emax, maximal inhibition of forskolin-stimulated cAMP): 99%; Emax [2]: 91%; EC50 [2]: 920 ± 40 nM

Now from value to molecule, other results behind:

Row | inhibition at 50 µM [1] | Emax [1] | EC50 [1] | inhibition at 50 µM [2] | Emax [3, 5] | EC50 [3, 6] | SMILES | further results
12 | – | 89% | 4800 ± 360 nM | – | 96% | 7100 ± 1310 nM | Cc1cc(=O)oc2[nH]c(=S)[nH]c(=O)c12 [2-1] | Emax [2]: 87%; EC50 [2]: 19000 ± 6800 nM
13 | 38 ± 2% | – | – | 29 ± 3% | 86% | 870 ± 110 nM | CCCc1cc(=O)oc2[nH]c(=S)[nH]c(=O)c12 [2-3, 5-Propyl-2-thioxo-2,3-dihydro-1H-pyrano[2,3-d]pyrimidine-4,7-dionee] | –
14 | – | 95% | 190 ± 30 nM | – | 97% | 550 ± 40 nM | CCCCc1cc(=O)oc2[nH]c(=S)[nH]c(=O)c12 [2-4, 5-Butyl-2-thioxo-2,3-dihydro-1H-pyrano[2,3-d]pyrimidine-4,7-dione] | Emax [2]: 93%; EC50 [2]: 740 ± 80 nM
15 | 28 ± 4% | – | – | – | 93% | 51 ± 7 nM | CCCCc1cc(=O)oc2[nH]c(=O)[nH]c(=O)c12 [2-5] | El.ox. pot. (single value) [4]: 1.94 V
16 | – | 89% | 340 ± 50 nM | – | 94% | 350 ± 20 nM | O=c1cc(CCCCCl)c2c(=O)[nH]c(=S)[nH]c2o1 [2-6, 5-(4-Chlorobutyl)-2-thioxo-2,3-dihydro-1H-pyrano[2,3-d]pyrimidine-4,7-dione] | Emax [2]: 83%; EC50 [2]: 2500 ± 400 nM
17 | – | 95% | 1600 ± 500 nM | 65 ± 1% | 93% | 75000 ± 11000 nM | CCCCc1cc(=O)oc2[nH]c(SCC(=O)OCC)nc(=O)c12 [3-1, Ethyl 5-butyl-4,7-dioxo-1,7-dihydro-4H-(pyrano[2,3-d]pyrimidin-2-ylsulfanyl)acetate] | El.ox. pot. (single value) [4]: 1.97 V
18 | – | 91% | 1700 ± 200 nM | 64 ± 2% | 89% | 43000 ± 8000 nM | CCOC(=O)CSc1nc(=O)c2c(CCCCCl)cc(=O)oc2[nH]1 [3-2] | –
19 | 20 ± 4% | – | – | 42 ± 2% | 87% | 62000 ± 10000 nM | NC(=O)CSc1nc(=O)c2c(CCCCCl)cc(=O)oc2[nH]1 [3-5, 2-[5-(4-Chlorobutyl)-4,7-dioxo-1,7-dihydro-4H-pyrano[2,3-d]pyrimidin-2-ylsulfanyl]-acetamide] | El.ox. pot. (single value) [4]: 1.93 V
20 | – | 87% | 4600 ± 600 nM | 52 ± 10% | – | – | O=C(CSc1nc(=O)c2c(CCCCCl)cc(=O)oc2[nH]1)Nc1ccccc1C(=O)O [3-7, 2-2-[5-(4-Chlorobutyl)-4,7-dioxo-1,7-dihydro-4H-pyrano[2,3-d]pyrimidin-2-ylsulfanyl]-acetamino-benzoic acid] | inhibition at 50 µM ([3]; HCA2): 30 ± 6%
